Measured values reported in patent publication US7384758B2, “Bioluminescent protease assay with modified aminoluciferin or derivatives thereof” (Promeaga Corporation, priority 2002, dated 2008).

What was measured:
[1] = system: thermostable firefly luciferase; experiment: luminescent reaction with luciferin or aminoluciferin as luciferase substrate (FIG. 1); assay type: biochemical
Source text: FIG. 1 depicts relative light units (RLU) for luciferin or aminoluciferin as a substrate for a thermostable firefly luciferase in a luminescent reaction.

caspase 3 = biological target: T1, caspase 3 (Homo sapiens, UniProt P42574); experiment: caspase titration in CHAPS or Thesit buffer formulations (Example 5); assay type: biochemical; details: buffer containing either CHAPS or Thesit, FIG. 12
T1 construct: approximately 10 mU/ng protein with >75% in active conformation; purchased Upstate Biotech 14-264
T1 sequence (P42574 29-175 limits assumed): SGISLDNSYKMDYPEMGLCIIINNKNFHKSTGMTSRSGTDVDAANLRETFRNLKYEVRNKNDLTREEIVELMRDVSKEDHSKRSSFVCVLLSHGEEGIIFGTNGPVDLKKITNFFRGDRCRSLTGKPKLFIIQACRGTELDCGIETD
T1 sequence (P42574 176-277 limits assumed): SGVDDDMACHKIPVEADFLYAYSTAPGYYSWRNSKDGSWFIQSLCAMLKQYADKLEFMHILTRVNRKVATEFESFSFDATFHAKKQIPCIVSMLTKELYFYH
Procedure: To evaluate different assay component formulations for caspase-3 activity and to compare sensitivities of DEVD-aminoluciferin to DEVD-Rho-110 in those formulations, two stock solutions were prepared. As above, the DEVD-aminoluciferin/luciferase mixture is prepared and allowed to incubate overnight. One stock solution included a 1% solution of CHAPS buffer (Sigma, Catalog No. C-5070) and the other a 1% solution of Thesit (Pragmatics, Inc., Catalog No. S-22#9). The buffer formulations were as follows: 100 μl of HEPES (1 M stock, 50 mM final concentration), 10 μl of CaCl2 (1 M stock, 5 mM final concentration), 30 μl of MgSO4 (1 M stock, 15 mM final concentration), 8 μl of ATP (0.1 M stock, 400 μM final concentration), 8 μl of DEVD-aminoluciferin (10 mM stock, 40 μM final concentration), 38.4 μl of luciferase (5.2 mg/ml stock, 100 μg/ml final concentration) and 20 μl of prionex (10% stock, 0.1% final concentration) were combined in each of 2 tubes. Finally, 200 μl of either CHAPS or Thesit (1% stock, 0.1% final concentration) was added to one of the tubes. This was incubated overnight. […]
To one plate, 50 μl of DEVD-aminoluciferin/luciferase was added to each of the 6 wells containing each dilution (both CHAPS and Thesit treated). […] The plates were read at various times on a luminometer (Dynex) or a fluorimeter (Fluoroskan).

SMILES: Nc1ccc2nc(C3=N[C@@H](C(=O)O)CS3)sc2c1 [aminoluciferin]
- Km ([1]; substrate for thermostable firefly luciferase, FIG. 1): 2 µM
- light output as luciferin ([1]; under saturating conditions, relative to luciferin): about 60%
- limit of detection (caspase) (caspase 3): ~0.2 μU
